In patent US10072025B2, “Ethyl N-boc piperidinyl pyrazolo pyridones as Janus kinase inhibitors” (Merck Sharp & Dohme Corp., priority 2014, dated 2018):
Where two headings read alike, the source gives them in different places.

What was measured:
JAK1 = JAK1 (Homo sapiens (Human), UniProt P23458); test: Jak Biochemical HTRF Assay (JAK1)
JAK2 = JAK2 (Homo sapiens (Human), UniProt O60674); test: Jak Biochemical HTRF Assay (JAK2); conditions: recombinant purified GST-tagged catalytic domain, [ATP] 8.5 μM, [E] 0.052 nM
[1] = recombinant purified GST-tagged catalytic domain, HTRF, [ATP] 31.8 μM, [E] 1.405 nM

Chain of JAK1 (P23458 875-1153): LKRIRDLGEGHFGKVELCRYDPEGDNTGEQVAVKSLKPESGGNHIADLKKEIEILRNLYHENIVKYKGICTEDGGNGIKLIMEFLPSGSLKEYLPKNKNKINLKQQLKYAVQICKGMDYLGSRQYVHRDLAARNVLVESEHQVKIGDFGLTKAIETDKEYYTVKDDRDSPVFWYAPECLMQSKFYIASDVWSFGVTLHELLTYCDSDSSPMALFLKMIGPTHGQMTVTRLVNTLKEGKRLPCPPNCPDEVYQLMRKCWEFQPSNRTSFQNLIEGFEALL
Chain of JAK2 (O60674 849-1124): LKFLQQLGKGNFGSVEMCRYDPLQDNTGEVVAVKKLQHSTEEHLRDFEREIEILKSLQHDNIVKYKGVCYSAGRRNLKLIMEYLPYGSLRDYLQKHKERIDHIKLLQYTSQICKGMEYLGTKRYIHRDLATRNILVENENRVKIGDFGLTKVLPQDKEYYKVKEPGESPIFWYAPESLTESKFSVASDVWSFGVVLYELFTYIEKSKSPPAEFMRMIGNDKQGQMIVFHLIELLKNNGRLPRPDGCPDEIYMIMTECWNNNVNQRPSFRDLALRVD

| SMILES | IC50 (JAK1; [1]) | IC50 (JAK2) | IC50 (JAK1) |
| --- | --- | --- | --- |
| CCC1(n2nc(Nc3ccc(C(=O)N4CCC(F)(F)CC4)c(C)c3)c3c(=O)[nH]ccc32)CCN(C(=O)OC(C)(C)C)CC1 [Example 2-26, tert-butyl 4-(3-(4-(4,4-difluoropiperidine-1-carbonyl)-3-methylphenylamino)-4-oxo-4,5-dihydropyrazolo [4,3-c]pyridin-1-yl)-4-ethylpiperidine-1-carboxylate] | 1.19 nM | 1.44 nM |  |
| CCC1(n2nc(Nc3ccc(C(=O)N4C[C@@H]5C[C@H]4CO5)c(C)c3)c3c(=O)[nH]ccc32)CCN(C(=O)OC(C)(C)C)CC1 [Example 2-22, tert-butyl 4-(3-(4-((1S,4S)-5-oxa-2-aza-bicyclo[2.2.1]heptane-2-carbonyl)-3-methylphenylamino)-4-oxo-4,5-dihydropyrazolo[4,3-c]pyridin-1-yl)-4-ethylpiperidine-1-carboxylate] | 0.36 nM | 0.44 nM |  |
| CCC1(n2nc(Nc3ccc(C(=O)N4CC5CCC(C4)O5)c(C)c3)c3c(=O)[nH]ccc32)CCN(C(=O)OC(C)(C)C)CC1 [Example 2-1, tert-butyl 4-(3-((4-(8-oxa-3-azabicyclo[3.2.1]octane-3-carbonyl)-3-methylphenyl)amino)-4-oxo-4,5-dihydro-1H-pyrazolo[4,3-c]pyridin-1-yl)-4-ethylpiperidine-1-carboxylate] | 0.47 nM | 0.49 nM |  |
| CCC1(n2nc(Nc3ccc(C(=O)N4C[C@H]5C[C@@H]4CO5)c(C)c3)c3c(=O)[nH]ccc32)CCN(C(=O)OC(C)(C)C)CC1 [Example 2-15, tert-butyl 4-(3-((4-((1R,4R)-2-oxa-5-azabicyclo[2.2.1]heptane-5-carbonyl)-3-methylphenyl)amino)-4-oxo-4,5-dihydro-1H-pyrazolo[4,3-c]pyridin-1-yl)-4-ethylpiperidine-1-carboxylate] | 0.4 nM | 0.43 nM |  |
| CCC1(n2nc(Nc3ccc(C(=O)N4CCO[C@H](C)C4)c(C)c3)c3c(=O)[nH]ccc32)CCN(C(=O)OC(C)(C)C)CC1 [Example 2-7, (R)-tert-butyl-4-ethyl-4-(3-(3-methyl-4-(2-methylmorpholine-4-carbonyl)phenylamino)-4-oxo-4,5-dihydropyrazolo[4,3-c]pyridin-1-yl) piperidine-1-carboxylate] | 0.72 nM | 0.6 nM |  |
| CCC1(n2nc(Nc3ccc(C(=O)N4C5CCC4COC5)c(C)c3)c3c(=O)[nH]ccc32)CCN(C(=O)OC(C)(C)C)CC1 [Example 2-13, tert-butyl 4-(3-((4-(3-oxa-8-azabicyclo [3.2.1]octane-8-carbonyl)-3-methylphenyl)amino)-4-oxo-4,5-dihydro-1H-pyrazolo[4,3-c]pyridin-1-yl)-4-ethylpiperidine-1-carboxylate] |  | 0.54 nM | 0.52 nM |
| CCC1(n2nc(Nc3ccc(C(=O)N4C[C@@H](C)O[C@@H](C)C4)c(C)c3)c3c(=O)[nH]ccc32)CCN(C(=O)OC(C)(C)C)CC1 [Example 3-4, tert-butyl 4-{3-[(4-{[(2R,6S)-2,6-dimethylmorpholin-4-yl]carbonyl}-3-methylphenyl)amino]-4-oxo-4,5-dihydro-1H-pyrazolo[4,3-c]pyridin-1-yl}-4-ethylpiperidine-1-carboxylate] | 1.09 nM | 1.17 nM |  |
| CCC1(n2nc(Nc3ccc(C(=O)N4CCOC5CC54)c(C)c3)c3c(=O)[nH]ccc32)CCN(C(=O)OC(C)(C)C)CC1 (stereo not drawn) [Example 3-21, tert-butyl 4-ethyl-4-(3-{[3-methyl-4-(2-oxa-5-azabicyclo [4.1.0]hept-5-ylcarbonyl)phenyl]amino}-4-oxo-4,5-dihydro-1H-pyrazolo [4,3-c]pyridin-1-yl) piperidine-1-carboxylate] | 1.69 nM | 1.34 nM |  |
| CCC1(n2nc(Nc3ccc(C(=O)N4CCOC(=O)C4)c(C)c3)c3c(=O)[nH]ccc32)CCN(C(=O)OC(C)(C)C)CC1 [Example 3-1, tert-butyl-4-ethyl-4-(3-((3-methyl-4-(2-oxomorpholine-4-carbonyl)phenyl)amino)-4-oxo-4,5-dihydro-1H-pyrazolo[4,3-c]pyridin-1-yl)piperidine-1-carboxylate] | 0.25 nM | 0.8 nM |  |
